What was measured:
[1] = system: Rattus norvegicus; assay: Oral diuretic activity was measured after oral administration of 25 mg/kg to rats(control volume is 0.94+/-0.04); type: functional, Urine
[2] = system: Rattus norvegicus; assay: Effect on urinary excretion potassium and sodium after oral administration of 25 mg/kg to rats(potassium and sodium excretion in control rat is 0.130+/-0.009); type: functional, Urine
[3] = organism: Rattus norvegicus; assay: animal or person; settings: ip, read-out: Inhibition, dose 1 mg/kg, route intraperitoneal
[4] = system: Rattus norvegicus; assay: Ratio of urinary excretion value (urinary volume) in treated rats to that in control rats, at a peroral dose of 25 mg/Kg; type: functional, Urine
[5] = system: Rattus norvegicus; assay: Urea nitrogen concentration measured after intraperitoneal administration of 1 mg/kg of compound to rats(vehicle 195.8+/-14.4); type: functional
[6] = system: Rattus norvegicus; assay: Percent inhibition of Urea nitrogen by the compound given as ratio of UN value in treated to vehicle treated ones after intraperitoneal administration of 1 mg/kg of compound to rats(vehicle 195.8+/-14.4); type: functional; settings: Rattus norvegicus, ip
[7] = system: Rattus norvegicus; assay: Serum creatinine concentration measured after intraperitoneal administration of 1 mg/kg of compound to rats(vehicle 5.07+/-0.33); type: functional
[8] = molecular target: T1, Adenosine receptor A1 (Cavia porcellus, UniProt P47745)
T1 sequence (P47745 whole entry): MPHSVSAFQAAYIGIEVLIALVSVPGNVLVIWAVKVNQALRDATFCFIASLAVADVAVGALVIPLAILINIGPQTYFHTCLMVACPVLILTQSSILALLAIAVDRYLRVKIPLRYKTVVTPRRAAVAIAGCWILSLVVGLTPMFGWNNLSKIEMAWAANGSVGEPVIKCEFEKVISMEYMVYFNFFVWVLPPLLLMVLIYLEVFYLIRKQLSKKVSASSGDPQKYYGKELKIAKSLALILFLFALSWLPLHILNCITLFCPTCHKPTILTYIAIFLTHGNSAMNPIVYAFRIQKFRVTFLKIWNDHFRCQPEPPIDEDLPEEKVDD
Description: Binding affinity against adenosine A1 receptor in guinea pig forebrain membranes using N6-[3H]cyclohexyladenosine as radioligand

[9] = system: Rattus norvegicus; assay: Ratio of urinary excretion value (Na+ concentration) in treated rats to that in control rats, at a peroral dose of 25 mg/Kg; type: functional, Urine
[10] = molecular target: Adenosine A2 receptor (Rattus norvegicus, UniProt P29276+P30543)
[11] = system: Rattus norvegicus; assay: Effect on urinary excretion potassium and sodium after oral administration of 1.6 mg/kg to rats(potassium and sodium excretion in control rat is 0.261+/-0.008); type: functional, Urine
[12] = system: Rattus norvegicus; assay: Percent inhibition of serum creatinine by the compound given as ratio of Cr value in treated to vehicle treated ones fter intraperitoneal administration of 10 mg/kg of compound to rats(vehicle 3.94+/-0.24); type: functional; settings: ip
[13] = system: Rattus norvegicus; assay: Ratio of sodium ion/potassium ion concentration in treated rats to that in control rats, at a peroral dose of 25 mg/Kg; type: functional
[14] = system: Rattus norvegicus; assay: Ratio of urinary excretion value (Na+ concentration) in treated rats to that in control rats, at a peroral dose of 6.25 mg/Kg; type: functional, Urine
[15] = system: Rattus norvegicus; assay: Effect on urinary excretion potassium and sodium after oral administration of 25 mg/kg to rats(potassium and sodium excretion in control rat is 0.134+/-0.004); type: functional, Urine
[16] = system: Rattus norvegicus; assay: Serum creatinine concentration measured after intraperitoneal administration of 10 mg/kg of compound to rats(vehicle 3.94+/-0.24); type: functional
[17] = system: Rattus norvegicus; assay: Ratio of urinary excretion value (Na+ concentration) in treated rats to that in control rats, at a peroral dose of 1.6 mg/Kg; type: functional, Urine
[18] = system: Rattus norvegicus; assay: Urea nitrogen concentration measured after intraperitoneal administration of 1 mg/kg of compound to rats(vehicle 178+/-11.3); type: functional
[19] = system: Rattus norvegicus; assay: Percent inhibition of Urea nitrogen by the compound given as ratio of UN value in treated to vehicle treated ones fter intraperitoneal administration of 10 mg/kg of compound to rats(vehicle 141.3+/-6.6); type: functional; settings: ip
[20] = system: Rattus norvegicus; assay: Oral diuretic activity was measured after oral administration of 1.6 mg/kg to rats(control volume is […]+/-[…]); type: functional, Urine
[21] = system: Rattus norvegicus; assay: Urea nitrogen concentration measured after intraperitoneal administration of 10 mg/kg of compound to rats(vehicle 141.3+/-6.6); type: functional
[22] = system: Rattus norvegicus; assay: Percent inhibition of serum creatinine by the compound given as ratio of Cr value in treated to vehicle treated ones after intraperitoneal administration of 1 mg/kg of compound to rats(vehicle 3.86+/-0.27); type: functional; settings: ip
[23] = system: Rattus norvegicus; assay: Ratio of urinary excretion value (urinary volume) in treated rats to that in control rats, at a peroral dose of 6.25 mg/Kg; type: functional, Urine
[24] = system: Rattus norvegicus; assay: Ratio of sodium ion/potassium ion concentration in treated rats to that in control rats, at a peroral dose of 1.6 mg/Kg; type: functional
[25] = system: Rattus norvegicus; assay: Percent inhibition of Urea nitrogen by the compound given as ratio of UN value in treated to vehicle treated ones after intraperitoneal administration of 1 mg/kg of compound to rats(vehicle 178+/-11.3); type: functional; settings: ip
[26] = system: Rattus norvegicus; assay: Serum creatinine concentration measured after intraperitoneal administration of 1 mg/kg of compound to rats(vehicle 3.86+/-0.27); type: functional
[27] = system: Rattus norvegicus; assay: Ratio of urinary excretion value (urinary volume) in treated rats to that in control rats, at a peroral dose of 1.6 mg/Kg; type: functional, Urine
[28] = system: Rattus norvegicus; assay: Oral diuretic activity was measured after oral administration of 25 mg/kg to rats(control volume is 0.80+/-0.04); type: functional, Urine

CCCn1c(=O)c2nc(C3CC4C=CC3C4)[nH]c2n(CCC)c1=O (stereo in doubt; 18)
Urine volume [1]: 1.75 ml 6hr-1 100g-1 | Na [2]: 0.271 m equiv 6hr-1 100g-1 | inhibition in vivo at 1 mg/kg [3]: 56% | T/C [4]: 1.87 | UN [5]: 92.7 mg/dL | inhibition in vivo at 1 mg/kg [6]: 53% | Cr [7]: 2.23 mg/dL | Ki [8]: 3.4 nM | T/C [9]: 2.09 | Ki [10]: 210 nM

Cn1c(=O)c2nc(-c3ccccc3)[nH]c2n(C)c1=O [8-PHENYL THEOPHYLLINE]
Na [11]: 0.175 m equiv 6hr-1 100g-1 | T/C [4]: 1.38 | inhibition in vivo at 10 mg/kg [12]: 56% | Na+/K+ [13]: 1.39 | T/C [14]: 1.54 | Na [15]: 0.201 m equiv 6hr-1 100g-1 | Cr [16]: 1.74 mg/dL | Ki [8]: 1600 nM | T/C [17]: 0.87 | UN [18]: 148.3 mg/dL | inhibition in vivo at 10 mg/kg [19]: 56% | Urine volume [20]: 0.88 ml 6hr-1 100g-1 | T/C [9]: 1.39 | UN [21]: 62.4 mg/dL | inhibition in vivo at 1 mg/kg [22]: 19% | T/C [23]: 1.79 | Na+/K+ [24]: 0.87 | Ki [10]: 2300 nM | inhibition in vivo at 1 mg/kg [25]: 17% | Cr [26]: 3.14 mg/dL | T/C [27]: 0.63 | Urine volume [28]: 1.1 ml 6hr-1 100g-1
